The target of test [1] is T1, Adrenergic receptor alpha-2 (Rattus norvegicus, UniProt P22086+P19328+P22909).
T1 sequence (P22086 whole entry): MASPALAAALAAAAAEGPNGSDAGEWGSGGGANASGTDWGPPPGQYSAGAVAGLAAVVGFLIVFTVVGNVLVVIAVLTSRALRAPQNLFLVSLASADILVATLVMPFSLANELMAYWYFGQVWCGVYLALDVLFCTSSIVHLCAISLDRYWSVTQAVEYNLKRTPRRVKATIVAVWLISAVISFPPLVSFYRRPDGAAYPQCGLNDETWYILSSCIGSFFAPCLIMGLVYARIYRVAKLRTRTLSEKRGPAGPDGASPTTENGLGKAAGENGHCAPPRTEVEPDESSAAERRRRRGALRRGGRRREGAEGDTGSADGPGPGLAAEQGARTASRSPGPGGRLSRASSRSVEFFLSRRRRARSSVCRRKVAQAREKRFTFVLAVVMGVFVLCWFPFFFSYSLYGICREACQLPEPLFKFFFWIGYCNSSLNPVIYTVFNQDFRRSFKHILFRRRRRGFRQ
T1 sequence (P19328 whole entry): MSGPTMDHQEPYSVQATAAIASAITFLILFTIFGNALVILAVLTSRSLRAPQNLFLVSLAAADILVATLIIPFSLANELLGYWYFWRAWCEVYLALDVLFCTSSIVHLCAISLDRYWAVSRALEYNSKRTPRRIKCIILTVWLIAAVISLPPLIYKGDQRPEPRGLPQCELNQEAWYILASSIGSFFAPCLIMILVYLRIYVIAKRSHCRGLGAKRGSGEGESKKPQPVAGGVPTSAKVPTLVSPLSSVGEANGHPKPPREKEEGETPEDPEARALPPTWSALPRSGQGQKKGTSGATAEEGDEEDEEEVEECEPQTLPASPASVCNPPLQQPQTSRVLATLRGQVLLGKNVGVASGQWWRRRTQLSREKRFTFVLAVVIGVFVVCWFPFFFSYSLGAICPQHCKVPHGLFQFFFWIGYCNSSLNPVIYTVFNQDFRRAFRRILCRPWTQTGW
T1 sequence (P22909 whole entry): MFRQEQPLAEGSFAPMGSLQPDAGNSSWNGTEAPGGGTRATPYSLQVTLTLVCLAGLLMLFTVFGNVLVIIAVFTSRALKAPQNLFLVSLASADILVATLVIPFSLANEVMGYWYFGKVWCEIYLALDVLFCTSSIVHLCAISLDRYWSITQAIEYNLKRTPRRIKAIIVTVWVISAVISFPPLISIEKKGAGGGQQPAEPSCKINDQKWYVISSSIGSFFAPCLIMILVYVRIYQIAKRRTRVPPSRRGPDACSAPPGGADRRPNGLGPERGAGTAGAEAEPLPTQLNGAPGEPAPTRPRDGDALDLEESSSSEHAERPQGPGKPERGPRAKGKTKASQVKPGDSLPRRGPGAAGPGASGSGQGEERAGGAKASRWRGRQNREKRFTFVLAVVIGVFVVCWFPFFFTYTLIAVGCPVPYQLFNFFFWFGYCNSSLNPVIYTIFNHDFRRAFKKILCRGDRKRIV
In words: Evaluated for its presynaptic Alpha-2 adrenergic receptor antagonistic activity against rat vas deferens using clonidine as the control expressed as slope. The format is functional, tissue-based.

The target in test [2] is T2, Adrenergic receptor alpha-1 (Rattus norvegicus, UniProt P15823+P23944+P43140).
T2 sequence (P15823 whole entry): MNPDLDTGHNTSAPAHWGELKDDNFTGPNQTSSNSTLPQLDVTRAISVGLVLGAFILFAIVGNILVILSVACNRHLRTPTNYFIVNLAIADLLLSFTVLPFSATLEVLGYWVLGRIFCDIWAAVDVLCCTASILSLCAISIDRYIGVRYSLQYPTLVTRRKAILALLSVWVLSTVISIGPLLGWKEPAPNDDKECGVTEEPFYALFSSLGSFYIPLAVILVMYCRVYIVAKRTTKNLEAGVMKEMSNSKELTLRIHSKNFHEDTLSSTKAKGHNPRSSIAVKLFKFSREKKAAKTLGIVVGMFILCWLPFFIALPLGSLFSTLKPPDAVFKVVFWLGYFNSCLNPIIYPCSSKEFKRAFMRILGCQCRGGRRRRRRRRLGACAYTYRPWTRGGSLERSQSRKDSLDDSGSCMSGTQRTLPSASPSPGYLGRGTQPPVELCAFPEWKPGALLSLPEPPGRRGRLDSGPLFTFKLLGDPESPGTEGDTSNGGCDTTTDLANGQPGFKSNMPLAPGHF
T2 sequence (P23944 whole entry): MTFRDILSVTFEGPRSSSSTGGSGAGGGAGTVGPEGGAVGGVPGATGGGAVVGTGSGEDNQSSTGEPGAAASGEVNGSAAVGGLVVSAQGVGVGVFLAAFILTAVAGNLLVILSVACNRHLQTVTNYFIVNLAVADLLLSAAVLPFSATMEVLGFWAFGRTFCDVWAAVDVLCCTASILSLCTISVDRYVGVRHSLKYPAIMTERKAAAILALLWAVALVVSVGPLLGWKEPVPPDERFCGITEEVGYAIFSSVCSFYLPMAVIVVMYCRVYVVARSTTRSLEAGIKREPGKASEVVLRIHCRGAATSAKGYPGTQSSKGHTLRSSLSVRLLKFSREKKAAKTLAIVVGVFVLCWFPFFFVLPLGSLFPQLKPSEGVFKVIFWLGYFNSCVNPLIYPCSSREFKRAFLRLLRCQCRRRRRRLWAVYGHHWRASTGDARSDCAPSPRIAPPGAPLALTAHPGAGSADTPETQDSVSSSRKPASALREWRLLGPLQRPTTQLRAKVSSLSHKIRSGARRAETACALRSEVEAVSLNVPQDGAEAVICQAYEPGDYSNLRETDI
T2 sequence (P43140 whole entry): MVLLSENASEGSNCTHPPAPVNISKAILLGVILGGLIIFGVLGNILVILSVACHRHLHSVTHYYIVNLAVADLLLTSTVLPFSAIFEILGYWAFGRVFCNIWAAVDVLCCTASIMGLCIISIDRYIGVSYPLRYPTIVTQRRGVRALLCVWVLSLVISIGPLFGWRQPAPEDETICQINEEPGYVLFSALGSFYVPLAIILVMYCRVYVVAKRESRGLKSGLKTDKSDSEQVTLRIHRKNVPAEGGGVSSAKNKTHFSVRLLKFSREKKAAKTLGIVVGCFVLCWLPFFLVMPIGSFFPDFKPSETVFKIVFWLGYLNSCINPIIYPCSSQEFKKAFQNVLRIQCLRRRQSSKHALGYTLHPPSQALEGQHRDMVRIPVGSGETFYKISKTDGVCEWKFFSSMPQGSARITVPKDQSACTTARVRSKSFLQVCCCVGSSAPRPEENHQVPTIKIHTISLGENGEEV
Kind of test: In vitro binding affinity at Alpha-1 adrenergic receptor by radioligand binding assay using [3H]prazosin. The format is protein assay.

Test [3] addresses T1, Adrenergic receptor alpha-2. Kind of test: In vitro binding affinity at Alpha-2 adrenergic receptor in rat cortex by radioligand binding assay using [3H]rauwolscine.
For test [4], the species on record is Rattus norvegicus. In words: Concentration required for its norepinephrine reuptake inhibitory activity in synaptosomal rat hyphalamic preparations. It counts as functional.

For orientation: pA2 means a measure of antagonist potency on a negative log scale. The low end stands for lower antagonist potency, the high end for higher antagonist potency. As usually defined, the Ki is the dissociation constant of the complex between target and ligand, obtained from inhibition or displacement. What is called IC50 is the midpoint of a concentration-inhibition curve. Low readings indicate greater potency in that assay, high ones weaker potency in that assay.

For `c1ccc([C@@H]2CCN(C[C@@H]3CCCc4c3ccc3c4OCO3)C2)cc1`, the pA2 in test [1] is listed as 7.91. Further, the Ki in test [2] turned out to be 47.4 nM; in test [3] it was 0.5 nM. Further, in test [4] (Rattus norvegicus), it took 1700 nM to reach half-maximal inhibition (IC50).
For the molecule `c1ccc([C@H]2CCN(C[C@@H]3CCCc4c3ccc3c4OCO3)C2)cc1`, in test [1], the pA2 stood at 7.78. Further, the Ki in test [2] is 106 nM; in test [3], 0.428 nM. The same molecule came in with an IC50 in test [4] of 3110 nM.
In test [1], `c1ccc([C@@H]2CCN(C[C@H]3CCCc4c3ccc3c4OCO3)C2)cc1` had a pA2 of 6.78. For the same molecule, the figures for the Ki in test [2] and in test [3] were 104 nM and 2.08 nM, respectively. For the same molecule, the IC50 in test [4] (Rattus norvegicus) is 636 nM.
The corresponding values for `c1ccc([C@H]2CCN(C[C@H]3CCCc4c3ccc3c4OCO3)C2)cc1` are 6.65, 189 nM, 4.56 nM and 1450 nM.
On to `c1ccc(C2CCN(CC3CCCc4c3ccc3c4OCO3)C2)cc1` (stereo in doubt; 1a/b), for which, in test [1], the pA2 was found to be 7.68. Also, the figures for the Ki in test [2] and in test [3] were 112 nM and 1.23 nM, respectively. Besides, the IC50 in test [4] came to 841 nM.
On the same counts, the results for `c1ccc(C2CCN(CC3CCCc4c3ccc3c4OCO3)C2)cc1` (stereo in doubt; 6a/b) are 7.84, 75.9 nM, 0.708 nM and 1320 nM.
In turn, `CN(C)CCCN1c2ccccc2CCc2ccccc21` [IMIPRAMINE] yielded a Ki in test [3] of 255 nM. This molecule had an IC50 in test [4] (Rattus norvegicus) of 105 nM.

For the origin of these results see ChEMBL document CHEMBL1127896, “Synthesis and pharmacological characterization of ABT-200: a putative novel antidepressant combining potent -2 antagonism with moderate NE uptake inhibition” (Bioorg Med Chem Lett, 1994).
